Results on 26 compounds are retold here after ChEMBL document CHEMBL1268819, “Design, synthesis, and biological evaluation of 4-(5-nitrofuran-2-yl)prop-2-en-1-one derivatives as potent antitubercular agents” (Bioorg Med Chem Lett, 2010).

Series [1] deals with Mycobacterium tuberculosis. Put plainly: Antitubercular activity against Mycobacterium tuberculosis H37Rv by resazurin microtiter assay. Type of series: functional. (In general: Alamar Blue is a resazurin reagent that responds to reducing activity.)
Series [2] is described as follows: Toxicity in African green monkey Vero cells. Type of series: cell-based. Particulars: chlorocebus sabaeus.
The nature of series [3]: Selectivity index, ratio of CC50 for African green monkey Vero cells to MIC for Mycobacterium tuberculosis H37Rv. The series is classed as functional.

Structures are written as SMILES. Converted amounts (≈) assume the structure as drawn. Bounds are passed on as bounds.

`O=C(/C=C/c1ccc([N+](=O)[O-])o1)c1ccc(OCc2ccccc2)cc1` returned a minimal inhibitory concentration (MIC) in series [1] of 3.29 µM (≈ 1.15 µg/mL). This compound showed a CC50 in series [2] of 515 µM.
The like results for `O=C(/C=C/c1ccc([N+](=O)[O-])o1)c1ccc(N2CCN(C/C=C/c3ccccc3)CC2)cc1` were, in that order, more than 32.7 µM and 343 µM.
For `O=C(/C=C/c1ccc([N+](=O)[O-])o1)c1ccc(OCc2ccc(F)cc2)cc1` the same measures were 19.8 µM (≈ 7.27 µg/mL) and 430 µM.
`O=C(/C=C/c1ccco1)c1ccc(F)cc1`: in series [1], the MIC was more than 93.9 µM. Also, in series [2], the half-maximal cytotoxic concentration (CC50) amounted to 661 µM.
The like results for `O=C(/C=C/c1ccc([N+](=O)[O-])s1)c1ccc(N2CCCCC2)cc1` were, in that order, 15.6 µM (≈ 5.35 µg/mL) and 404 µM.
The like results for `CCN(CC)c1ccc(C(=O)/C=C/c2ccc([N+](=O)[O-])o2)cc1` were, in that order, 0.48 µM (≈ 0.151 µg/mL) and 334 µM.
The like results for `O=C(/C=C/c1ccc([N+](=O)[O-])o1)c1ccccc1` were, in that order, 5.51 µM (≈ 1.34 µg/mL) and 444 µM.
On to `O=C(/C=C/c1ccc([N+](=O)[O-])o1)c1ccc(Cl)cc1`, for which the lowest concentration to inhibit growth in series [1] (MIC) was 4.5 µM (≈ 1.25 µg/mL). In series [2], this compound came in with a half-maximal cytotoxic concentration (CC50) of 558 µM.
The compound `O=C(/C=C/c1ccc([N+](=O)[O-])o1)c1ccc(Cl)cc1Cl` yielded a minimum inhibitory concentration (MIC) in series [1] of 14.1 µM (≈ 4.41 µg/mL). Besides, in series [2], the 50% cytotoxic concentration (CC50) was 417 µM.
In turn, `O=C(/C=C/c1ccc([N+](=O)[O-])o1)c1ccc(N2CCCCC2)cc1` came in with a minimal inhibitory concentration (MIC) in series [1] of 0.19 µM (≈ 0.062 µg/mL). In series [2], this compound gave a CC50 of 349 µM. The “Selectivity Index” value in series [3] is more than 1800.
As to `O=C(/C=C/c1ccc([N+](=O)[O-])o1)c1ccc(OCc2ccc(OC(F)(F)F)cc2)cc1`, 1.66 µM (≈ 0.719 µg/mL) was the least that counted as inhibitory in series [1] (MIC). The compound further showed a half-maximal cytotoxic concentration (CC50) in series [2] of 335 µM.
Regarding `O=C(/C=C/c1ccc([N+](=O)[O-])o1)c1cc2ccccc2oc1=O`, the MIC in series [1] was 29.9 µM (≈ 9.32 µg/mL). The compound also had a CC50 in series [2] of 360 µM.
Regarding `O=C(/C=C/c1ccc([N+](=O)[O-])o1)c1ccc(OCc2cccc(Cl)c2)cc1`, the minimal inhibitory concentration (MIC) in series [1] was found to be 6.1 µM (≈ 2.34 µg/mL). The compound further gave a CC50 in series [2] of 307 µM.
In the case of `O=C(/C=C/c1ccc([N+](=O)[O-])o1)c1ccc(N2CCN(Cc3ccccc3)CC2)cc1`, the MIC in series [1] was more than 31.7 µM. Further, in series [2], it took 299 µM to reach half-maximal cytotoxicity (CC50).
For `O=C(/C=C/c1ccc([N+](=O)[O-])o1)c1ccc(F)cc1`, the minimal inhibitory concentration (MIC) in series [1] turned out to be 4.17 µM (≈ 1.09 µg/mL). Moreover, the midpoint of cytotoxicity in series [2], the CC50, lay at 463 µM.
In the case of `O=C(/C=C/c1ccc([N+](=O)[O-])o1)c1ccco1`, the MIC in series [1] is 8.28 µM (≈ 1.93 µg/mL). In series [2], this compound gave a cytotoxic concentration (CC50) of 776 µM.
Consider `COc1ccc(COc2ccc(C(=O)/C=C/c3ccc([N+](=O)[O-])o3)cc2)cc1`, for which, in series [1], the MIC is 1.85 µM (≈ 0.702 µg/mL). The compound also yielded a half-maximal cytotoxic concentration (CC50) in series [2] of 311 µM.
In series [1], `C=C(C)COc1ccc(C(=O)/C=C/c2ccc([N+](=O)[O-])o2)cc1` showed an MIC of 5.59 µM (≈ 1.75 µg/mL). In series [2], this compound returned a CC50 of 393 µM.
Regarding `O=C(/C=C/c1ccc([N+](=O)[O-])o1)c1ccc(N2CCOCC2)cc1`, inhibition of growth in series [1] (MIC) required 0.38 µM (≈ 0.125 µg/mL). This compound showed a CC50 in series [2] of 387 µM.
For the compound `COc1ccc(C(=O)/C=C/c2ccc([N+](=O)[O-])o2)cc1`, in series [1], the MIC is 3.84 µM (≈ 1.05 µg/mL). In series [2], this compound registered a CC50 of 571 µM.
In series [1], `O=C(/C=C/c1ccc([N+](=O)[O-])o1)c1cccs1` gave a minimal inhibitory concentration (MIC) of 5.86 µM (≈ 1.46 µg/mL). In series [2], this compound gave a CC50 of 742 µM.
Compound `O=C(/C=C/c1ccc([N+](=O)[O-])o1)c1ccc(Br)cc1` returned an MIC in series [1] of 3.88 µM (≈ 1.25 µg/mL). The half-maximal cytotoxic concentration (CC50) in series [2] was found to be 354 µM.
For `O=C(/C=C/c1ccc([N+](=O)[O-])o1)c1ccc(OCc2ccc(Cl)cc2Cl)cc1`, the MIC in series [1] was more than 46.6 µM. In series [2], this compound gave a cytotoxic concentration (CC50) of 340 µM.
As to `NNC(=O)c1ccncc1` [ISONIAZID], 1.8 µM (≈ 0.247 µg/mL) was the least that counted as inhibitory in series [1] (MIC). The cytotoxic concentration (CC50) in series [2] was more than 500 µM.
As to `COc1cc(C(=O)/C=C/c2ccc([N+](=O)[O-])o2)cc(OC)c1OC`, the MIC in series [1] stood at 6.06 µM (≈ 2.02 µg/mL). Also, in series [2], the midpoint of cytotoxicity, the CC50, lay at 384 µM.
For `Cc1ccc(C(=O)/C=C/c2ccc([N+](=O)[O-])o2)cc1` the same measures were 4.35 µM (≈ 1.12 µg/mL) and 439 µM.

What is called MIC is the smallest concentration in the dilution series that meets the test's criterion for growth inhibition. For orientation: CC50 means the concentration giving 50% cytotoxicity.
